Assay [1] has as its system P388 lymphocytic leukemia. The assay is described as follows: P388 lymphocytic leukemia cell line (PS system) growth inhibition. It counts as cell-based, murine.
In the next assay the test system is human cancer cell lines. The assay is described as follows: NCI panel of sixty human cancer cell lines. It counts as cell-based. The note with it: for activity against human cancer cell lines (in words): NCI panel. An excerpt:
(§1) Only two hundred years ago, many diseases ravaged humankind. Many of these diseases now have been controlled or eradicated. In the development of the means to treat or control these diseases, work with the appropriate common experimental animals was of critical importance. With the various types of cancers, and with the HIV virus, such work is presently ongoing. The research for the treatment of various types of cancer is coordinated in the United States by the National Cancer Institute (NCI). NCI, as a government entity, has been charged with assisting, inter alia, anti-cancer research. To determine whether a substance has anti-cancer activity, NCI has established a variety of protocols, one of which involves testing the candidate substance against a cell line panel containing 60 human tumor cell lines. This protocol has been verified and is generally accepted throughout the scientific community. This protocol and the established statistical means of evaluating the results obtained therefrom have been fully described in the literature. See Principles & Practice of Oncology PPO Updates, Volume 3, Number 10, October 1989, by Michael R. Boyd, M.D., Ph.D., for an in depth description of the test protocol. The statistical analysis of the test protocol is explained in "Display and Analysis of Patterns of Differential Activity of Drugs Against Human Tumor Cell Lines: Development of Means Graph and COMPARE Algorithm" Journal of the National Cancer Institute Reports Vol. 81, No. 14, Pg. 1088, Jul. 14, 1989, by K. D. Paull et al. The context of both of these references is specifically incorporated herein by this reference thereto.

In assay [2] the test system is NCI H460 non-small cell lung. The assay is described as follows: NCI panel, NCI H460. The assay is classed as cell-based, human.
Source text: as §1, with “The statistical analysis of the test protocol is explained in "Display and Analysis of Patterns of Differential Activity of Drugs Against Human Tumor Cell Lines: Development of Means Graph and COMPARE Algorithm" Journal of the National Cancer Institute Reports Vol. 81, No. 14, Pg. 1088, Jul. 14, 1989, by K. D. Paull et al. The context of both of these references is specifically incorporated herein by this reference thereto.” left out

A further assay has as its system KM 20L2 colon. In words: NCI panel, KM 20L2. It counts as cell-based, human.
Source text: as §1, with “The statistical analysis of the test protocol is explained in "Display and Analysis of Patterns of Differential Activity of Drugs Against Human Tumor Cell Lines: Development of Means Graph and COMPARE Algorithm" Journal of the National Cancer Institute Reports Vol. 81, No. 14, Pg. 1088, Jul. 14, 1989, by K. D. Paull et al. The context of both of these references is specifically incorporated herein by this reference thereto.” left out

Another assay deals with SF-295 CNS. In words: NCI panel, SF-295. It counts as cell-based, human.
Source text: as §1, with “The statistical analysis of the test protocol is explained in "Display and Analysis of Patterns of Differential Activity of Drugs Against Human Tumor Cell Lines: Development of Means Graph and COMPARE Algorithm" Journal of the National Cancer Institute Reports Vol. 81, No. 14, Pg. 1088, Jul. 14, 1989, by K. D. Paull et al. The context of both of these references is specifically incorporated herein by this reference thereto.” left out

The next assay relates to SK-MEL-5 melanoma. The assay is described as follows: NCI panel, SK-MEL-5. The assay is classed as cell-based, human.
Source text: as §1, with “The statistical analysis of the test protocol is explained in "Display and Analysis of Patterns of Differential Activity of Drugs Against Human Tumor Cell Lines: Development of Means Graph and COMPARE Algorithm" Journal of the National Cancer Institute Reports Vol. 81, No. 14, Pg. 1088, Jul. 14, 1989, by K. D. Paull et al. The context of both of these references is specifically incorporated herein by this reference thereto.” left out

In the next assay the test system is OVCAR-3 ovarian. In words: NCI panel, OVCAR-3. It counts as cell-based, human.
Source text: as §1, with “The statistical analysis of the test protocol is explained in "Display and Analysis of Patterns of Differential Activity of Drugs Against Human Tumor Cell Lines: Development of Means Graph and COMPARE Algorithm" Journal of the National Cancer Institute Reports Vol. 81, No. 14, Pg. 1088, Jul. 14, 1989, by K. D. Paull et al. The context of both of these references is specifically incorporated herein by this reference thereto.” left out

Another assay relates to A-498 renal. The assay is described as follows: NCI panel, A-498. It counts as cell-based, human.
Source text: as §1, with “The statistical analysis of the test protocol is explained in "Display and Analysis of Patterns of Differential Activity of Drugs Against Human Tumor Cell Lines: Development of Means Graph and COMPARE Algorithm" Journal of the National Cancer Institute Reports Vol. 81, No. 14, Pg. 1088, Jul. 14, 1989, by K. D. Paull et al. The context of both of these references is specifically incorporated herein by this reference thereto.” left out

Structures are written as SMILES. Values after ≈ are worked out from the molar mass of the structure shown. “Also recorded” adds a separate entry of the source. Like-named read-outs stand apart in the source and are kept apart here.

In the case of `C=C/C=C\C(C)C1OC(=O)/C=C\C=C\C(C)C(O)CC(O)/C=C\C(C)C(O)C(C)CC(C)CCC(O)C1C` (stereo not drawn) [dictyostatin 1], the “growth inhibition of murine P388 lymphocytic leukemia (in words)” value in assay [1] is recorded as “strongly inhibit growth”; in assay [1] (listed as Dictyostatin 1) it was “phenomenally potent (and selective) activity; also recorded: strongly inhibit growth”. Moreover, the IC50 in assay [1] (Mus musculus, P388, pure dictyostatin 1, read-out: P388 ED50) stood at 0.38 ng/mL (≈ 0.713 nM). In addition, the “activity against human cancer cell lines (in words)” value with human cancer cell lines was “strong cancer cell growth inhibitory properties; also recorded: remarkably potent and specific”; in the assay on human cancer cell lines (listed as Dictyostatin 1) it was “phenomenally potent (and selective) activity; also recorded: strongly inhibit growth”. In the assay with human cancer cell lines (ovarian, CNS, renal, lung (non small cell), colon, and melanoma cells), the “NCI data (in words)” value is on record as “extremely positive results”. Further, the “activity against NCI H460 (in words)” value in assay [2] is “active and selective”. The “activity against KM 20L2 (in words)” value with KM 20L2 colon was “active and selective”. The “activity against SF-295 (in words)” value in the assay on SF-295 CNS was “active and selective”. In addition, the “activity against SK-MEL-5 (in words)” value in the assay on SK-MEL-5 melanoma is “active and selective”. For the same molecule, in the assay with OVCAR-3 ovarian, the “activity against OVCAR-3 (in words)” value is “active and selective”. For the same molecule, the “activity against A-498 (in words)” value in the assay with A-498 renal was “active and selective”.

Values taken from patent US5430053A, “Isolation and structure of dictyostatin 1” (Arizona Board of Regents acting on behalf of Arizona State …, priority 1994, dated 1995).
